Assay results as given in patent US10568949B2, “Method of eliciting an anti-tumor immune response with controlled delivery of TLR agonists in porous polymerlc devices” (President and Fellows of Harvard College, priority 2008, dated 2020).
Several values for one entry are separate records, joined by “and”; a condition that tells them apart may be missing. Equal entries are not always repeated.

Key:
host DCs = test: In vivo DC recruitment and activation in PLG matrices (FACS); design: species or system C57BL/6J mice; conditions: for proportion of CD8+ cDCs in DC population at vaccine site / proportion of pDCs in DC population at vaccine site / total DC numbers in situ: antigen-loaded matrices, CpG and GM-CSF together versus GM-CSF alone
Protocol: Blank scaffolds and scaffolds containing GM-CSF with or without 10 μg PEI-ODN control (5′-tcc atg agc ttc ctg agc tt-3′) (SEQ ID NO: 6) or 10 μg PEI-CpG-ODN condensate loaded scaffolds were implanted into subcutaneous pockets on the back of 7-9 week old male C57BL/6J mice. For histological examination scaffolds were excised and fixed in Z-fix solution, embedded in paraffin, and stained with hematoxylin and eosin. To analyze DC recruitment, scaffolds were excised and the ingrown tissue was digested into single cell suspensions using a collagenase solution (Worthingtion, 250 U/ml) that was agitated at 37° C. for 45 minutes. The cell suspensions were then poured through a 40 μm cell strainer to isolate cells from scaffold particles and the cells were pelleted and washed with cold PBS and counted using a Z2 coulter counter (Beckman Coulter). The resultant cell populations were then stained with primary antibodies (BD Pharmingen, San Diego, Calif.) conjugated to fluorescent markers to allow for analysis by flow cytometry. APC-conjugated CD11c (dendritic cell marker) and PE-conjugated CD86 (B7, costimulatory molecule) stains were conducted for DC recruitment analysis, and APC-conjugated CD11c, FITC-conjugated CCR7, and PE-conjugated MHCII stains were conducted for DC programming analysis. Cells were gated according to positive FITC, APC and PE using isotype controls, and the percentage of cells staining positive for each surface antigen was recorded. To track in vivo DC emigration from scaffolds toward the inguinal lymph nodes, 250 μg of lyophilized fluoroscein isothiocyanate (FITC) (Molecular Probes, Carlsbad, Calif.) was incorporated into scaffolds by mixing with PLG microspheres before scaffold processing, and FITC was also applied by incubating scaffolds with 330 ul of 3% FITC solution for 30 min. […] Cell suspensions from LNs were prepared by digestion in collagenase for 30 min and pressing of the tissue through 70 μm cell strainers, and examined for CD11c(+)FITC(+) cell numbers by flow cytometry.
Blank PLG matrices and matrices containing 3000 ng of GM-CSF alone or in combination with either 1, 10, 50, or 100 μg of CpG-ODN (studies were also performed with tumor lysates copresented with either 3000 ng of GM-CSF or 100 μg of CpG-ODN alone or in combination) were implanted into subcutaneous pockets on the back of 7- to 9-week-old male C57BL/6J mice. For histological examination, scaffolds were excised and fixed in Z-fix solution (Anatech), embedded in paraffin, and stained with hematoxylin and eosin (H&E). To analyze DC recruitment, scaffolds were excised at various time points and digested the ingrown tissue into single-cell suspensions with a collagenase solution (250 U/ml; Worthington) that was agitated at 37° C. for 45 min. The cell suspensions were then poured through a 40-μm cell strainer to isolate cells from scaffold particles, and the cells were pelleted and washed with cold PBS and counted with a Z2 coulter counter (Beckman Coulter). To assess DC infiltration and activation, subsets of the total cell population isolated from PLG matrices were stained with primary antibodies (BD Pharmingen) conjugated to fluorescent markers to allow for analysis by flow cytometry. Allophycocyanin (APC)-conjugated CD11c (DC marker) and phycoerythrin (PE)-conjugated CD86 (B7, costimulatory molecule) stains were conducted for DC recruitment analysis, and APC-conjugated CD11c, fluorescein isothiocyanate (FITC)-conjugated CCR7, and PE-conjugated MHCII stains were conducted for DC programming analysis. To further delineate the presence of specific DC subsets, cells were stained with APC-conjugated CD11c and PE-conjugated PDCA-1 (pDC marker), APC-conjugated CD11c and PE-conjugated CD8 (CD8 DCs), or APC-conjugated CD11c and FITC-conjugated CD11b (CD11b DCs).

B16-F10 tumors = test: Example 7: tumor infiltrating leukocyte (TIL) characterization; design: species or system C57BL/6J mice; conditions: mouse, in vivo
Protocol: On the indicated days, B16-F10 tumors were removed from mice, and digested in 1 mg/mL collagenase II (250 U/ml) (Worthington, Lakewood, N.J.) and 0.1 mg/mL DNase for 1 hour at 37° C. Dissociated cells were filtered through a 40-μm filter, and directly stained with antibodies for phenotype characterization by fluorescence-activated cell sorting (FACS) analysis. APC-anti-CD8 and PE-Cy7-anti CD3 were used to identify T cells isolated from the B16F10 tumors. These TILs were also costained with FITC-anti-IFNγ, and PE-anti-CD107a. All antibodies were obtained from eBioscience, San Diego, Calif.

B16-F10 melanoma cells [1] = test: Example 7: therapeutic vaccination of established B16-F10 melanoma
Protocol: To assess PLG vaccine efficacy in the therapeutic setting, C57/BL6J mice were challenged with a subcutaneous injection of 5×10^5 B16-F10 melanoma cells (ATCC, Manassas, N.J.) in the back of the neck. At day 9 after tumor challenge PLG vaccines loaded with 3000 ng GM-CSF in combination with 100 μg of CpG-ODN, MPLA or P(I:C), and tumor lysates were implanted subcutaneously into the lower left flank of C57BL/6J mice. A subset of mice were vaccinated again 10 days after the initial vaccination (Days 19 and 23).
Mice challenged with 5×10^5B16-F10 melanoma cells were subsequently vaccinated at days 9 and 19, after tumors were established.

dendritic cells = test: Example 8: DC recruitment and activation in cytokine loaded PLG matrices (FACS, day 7); format: in vivo, C57BL/6J mice
Protocol: To analyze DC recruitment by FACS analysis, scaffolds were excised and the ingrown tissue was digested into single cell suspensions using a collagenase solution (Worthingtion, 250 U/ml) that was agitated at 37° C. for 45 minutes. The cell suspensions were then poured through a 40 μm cell strainer to isolate cells from scaffold particles and the cells were pelleted and washed with cold PBS and counted using a Z2 coulter counter (Beckman Coulter). To assess, DC infiltration and activation, subsets of the total cell population isolated from PLG matrices were then stained with primary antibodies (BD Pharmingen, San Diego, Calif.) conjugated to fluorescent markers to allow for analysis by flow cytometry. APC-conjugated CD11c (dendritic cell marker), FITC-conjugated MHCII and PE-conjugated CD86 (B7, costimulatory molecule) stains were conducted for DC recruitment and activation analysis. To delineate the presence of the plasmacytoid DC subset, cells were also stained with APC-conjugated CD11c and PE-conjugated PDCA-1 (plasmacytoid DC marker). Cells were gated according to single positive FITC, APC and PE stainings using isotype controls. The percentage of cells staining positive for each surface antigen was recorded.

[2] = tested on: TRP-2-specific cytotoxic T lymphocytes; test: Example 8: TRP-2-specific cytotoxic T lymphocytes in spleens (Day 10); design: species or system C57BL/6J mice; conditions: mouse, in vivo
Protocol: To determine the generation of TRP-2-specific cytotoxic T lymphocytes, single cell suspensions were prepared at Day 10 from the spleens of mice immunized with PLG vaccines. These cells were initially stained with PE-H-2Kb/TRP2 pentamers (Sigma Aldrich), and subsequently stained with FITC-anti-CD8 and PE-CY7 CD3 mAb (mAb (BD Pharmingen, San Diego) before being analyzed using flow cytometry.

B16-F10 melanoma cells [3] = test: Example 8: therapeutic vaccination, B16-F10 melanoma; format: in vivo, C57BL/6J mice; conditions: vaccinated three days after tumor challenge
Protocol: PLG scaffolds containing B16-F10 melanoma tumor lysates, 100 μg CpG-ODN in combination with 3 μg GM-CSF, Flt3L or CCL20 were implanted subcutaneously into the lower left flank of C57BL/6J mice to act as cancer vaccines. To assess PLG vaccine efficacy in the therapeutic setting, C57/BL6J mice were challenged with a subcutaneous injection of 5×10^5 B16-F10 melanoma cells (ATCC, Manassas, N.J.) in the back of the neck, and 3 days after tumor challenge PLG vaccines were implanted subcutaneously into the lower left flank. Animals were monitored for the onset of tumor growth (approximately 1 mm^3) and sacrificed for humane reasons when tumors grew to 20-25 mm (longest diameter).

[4] = optimal CpG-ODN doses (10-25 μg) opposed by GM-CSF 3 μg, in vivo
[5] = tumor lysate with GM-CSF and CpG, day 10

CpG-ODN 1826
numbers of resident pDCs (host DCs; 3000 ng GM-CSF, 10 μg CpG-ODN): 520,000 cells
numbers of resident pDCs (host DCs; 3000 ng GM-CSF, 100 μg CpG-ODN): 1,200,000 cells and 1,100,000 cells
increase in CCR7 expressing DCs in matrices over GM-CSF or CpG-ODN delivery alone (host DCs; CpG-ODN with GM-CSF): ~4.5 fold
increase in MHCII expressing DCs in matrices over GM-CSF or CpG-ODN delivery alone (host DCs; CpG-ODN with GM-CSF): approximately 2.5 fold
total cells at the matrix site that were CD8(+) (host DCs; antigen presenting matrices with GM-CSF and CpG-ODN): 10.3%
proportion of CD8+ cDCs in DC population at vaccine site (host DCs; day 10, listed as CpG): ~14% and ~9.4%
proportion of pDCs in DC population at vaccine site (host DCs; day 10, listed as CpG): ~31% and ~38%
total DC numbers in situ (host DCs; listed as CpG): 3.0±0.6 million DCs and 3.05±0.55 million DCs
optimal CpG-ODN dose for DC activation in vivo (host DCs; in presence of high GM-CSF levels): 10 to 25 µg
numbers of activated DCs generated (host DCs; infection-mimicking system, CpG-ODN ~10-25 μg with GM-CSF): > 10^6
DC activation (host DCs; [4]): 44%
number of activated DCs (host DCs; [4]): 1.5×10^6 cells
increase (factor / fold) in pDCs over blank controls (host DCs; [5]): 10
increase (factor / fold) in pDCs over matrices without lysate/antigen (host DCs; [5]): 2
increase (factor / fold) in CD8+ DCs over blank matrices (host DCs; tumor lysates with CpG-ODN and GM-CSF): 9
number of CD8+ DCs (CD11c(+)CD8(+) cDCs) in matrices (host DCs; tumor lysates with CpG-ODN, no GM-CSF): 200,000
increase in IFNγ(+), CD107a(+) TILs in comparison to controls (B16-F10 tumors): approximately 6.1 fold
complete tumor regression, fraction of vaccinated animals (B16-F10 melanoma cells [1]; mouse, in vivo): over a third
size of tumors that completely regressed / were eradicated (B16-F10 melanoma cells [1]; mouse, in vivo): 35 mm^2
long term survival of mice (B16-F10 melanoma cells [1]; vaccinated at days 9 and 19): 33%

B1: granulocyte macrophage colony stimulating factor (protein, UniProt P01587 18-141, looked up)
Granulocyte-macrophage …: APTRSPITVTRPWKHVEAIKEALNLLDDMPVTLNEEVEVVSNEFSFKKLTCVQTRLKIFEQGLRGNFTKLKGALNMTASYYQTYCPPTPETDCETQVTTYADFIDSLKTFLTDIPFECKKPGQK
notes: cytokine encapsulated in and released from PLG matrices to recruit DCs
day at which activation state of DCs peaked (host DCs; 3000 ng GM-CSF): 10 days
numbers of resident pDCs (host DCs; 3000 ng GM-CSF, 0 μg CpG-ODN): 190,000 cells
increase (factor / fold) in CD11c DCs recruited vs blank PLG matrices (host DCs; 3000 ng GM-CSF, day 14): ~8
day at which activation state of DCs peaked (host DCs; 7000 ng GM-CSF): 28 days
matrix-resident DCs that were CD11b+ (host DCs; GM-CSF delivery): ~87%
number of DCs residing in the material (host DCs; GM-CSF delivery): ~10^6 cells
total DC numbers in situ (host DCs): 4.2±0.9 million DCs and 2.67±0.64 million DCs
proportion of CD8+ cDCs in DC population at vaccine site (host DCs; day 10): 5.5%
proportion of pDCs in DC population at vaccine site (host DCs; day 10): 7%
number of activated DCs (host DCs; best GM-CSF-based vaccine): ~240,000 DCs
recruited DCs that were activated (host DCs; best GM-CSF-based vaccine): approximately 26%
DC recruitment relative to blank PLG matrices (dendritic cells; day 7): > 5 fold
MHCII(+) and CD86(+) DCs of total DCs recruited (dendritic cells; in combination with CpG-ODN): 54-66%
increase in total number of activated DCs relative to control matrices devoid of cytokines (dendritic cells; in combination with CpG-ODN): Approximately 8 fold
resident CD11c(+)PDCA-1(+) pDCs (dendritic cells; in combination with CpG-ODN): approximately 110,000
Trp2 specific CTLs in spleens, higher than control vaccines [2]: ~4 fold
long-term survival rate (B16-F10 melanoma cells [3]): 88%
